Series [1] has as its system HCV replicon in human hepatoma Huh-7 cell line. Nature of the series: Anti-HCV replicon assay (EC50, luciferase). The class given is cell-based. The following applies: Hepatitis C virus, Huh-7, 72 h. In a few lines: (§1)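 Cytotoxicity (CC50) measured by CellTiter-Glo and antiviral activity (EC50) by luciferase signal from lysed cells, both by luminescence. Replicon-bearing Huh-7 cells, 6000 per well, incubated 3 days at 37 °C with threefold-diluted compound (0.5% DMSO for DMSO-dissolved compounds).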

A short description of series [2]: CC50 assay (CellTiter-Glo) in Huh-7 HCV replicon cells. Type of series: cell-based, human. Particulars: human, 3 days incubation, CellTiter-Glo readout. In a few lines:
as §1

Each structure is given as a SMILES string.

With `C[C@@H](O)C(=O)Nc1ccc(-c2ccc3nc(NCc4ccc(S(N)(=O)=O)cc4)nc(NCC(F)(F)F)c3n2)cc1` [Example 220, 2-Hydroxy-N-{4-[2-(4-sulfamoyl-benzylamino)-4-(2,2,2-trifluoro-ethylamino)-pyrido[3,2-d]pyrimidin-6-yl]-phenyl}-propionamide], in series [1], the EC50 is less than 0.1 µM. In series [2], this compound showed a CC50 at 3 days of 5 to 25 µM.

Turning to `NS(=O)(=O)c1ccc(CNc2nc(NCC(F)(F)F)c3nc(-c4ccc(C(=O)NC5CC5)cc4)ccc3n2)cc1` [Example 158, 4-{[4-(2,2,2-Trifluoroethyl)-amino-6-(4-(N-cyclopropylcarbamoyl)-phenyl)-pyrido[3,2-d]pyrimidin-2-ylamino]-methyl}-benzenesulfonamide], the EC50 in series [1] is less than 0.1 µM. In series [2], the CC50 at 3 days was in the range of 5 to 25 µM.

Consider `CCOc1nc(NCc2cccc(F)c2)nc2ccc(-c3ccc(F)cc3)nc12` [Example 47, [4-Ethoxy-6-(4-fluoro-phenyl)-pyrido[3,2-d]pyrimidin-2-yl]-(3-fluoro-benzyl)-amine], for which the EC50 in series [1] is less than 0.1 µM. The compound also displayed a CC50 at 3 days in series [2] of 5 to 25 µM.

As to `NS(=O)(=O)c1ccc(CNc2nc(NCC(F)(F)F)c3nc(-c4ccc(F)c(S(=O)(=O)N[C@@H]5CCNC5)c4)ccc3n2)cc1` [Example 213, 2-Fluoro-N-pyrrolidin-3-yl-5-[2-(4-sulfamoyl-benzylamino)-4-(2,2,2-trifluoro-ethylamino)-pyrido[3,2-d]pyrimidin-6-yl]-benzenesulfonamide], the EC50 in series [1] was less than 0.1 µM. This compound registered a CC50 at 3 days in series [2] of less than 5 µM.

Consider `COCCNc1nc(NC(C)C)c2nc(-c3ccc(F)cc3)ccc2n1` [Example 58, 6-(4-Fluoro-phenyl)-N4-isopropyl-N2-(2-methoxy-ethyl)-pyrido[3,2-d]pyrimidine-2,4-diamine], for which the EC50 in series [1] fell in the range of 0.25 to 2 µM. Also, the CC50 at 3 days in series [2] was less than 5 µM.

In series [1], `CCOc1nc(NCc2ccc(S(N)(=O)=O)cc2)nc2ccc(-c3ccc(NC(=O)OCCN4CCCC4)cc3)nc12` [Example 125] gave an EC50 of less than 0.1 µM. This compound registered a CC50 at 3 days in series [2] of less than 5 µM.

Take `Fc1ccc(-c2ccc3nc(NCC(F)(F)F)nc(O[C@H]4CCOC4)c3n2)cc1` [Example 20, [6-(4-Fluoro-phenyl)-4-(tetrahydro-furan-3-yloxy)-pyrido[3,2-d]pyrimidin-2-yl]-(2,2,2-trifluoro-ethyl)-amine]: in series [1], the EC50 was less than 0.1 µM. For the same compound, in series [2], the CC50 at 3 days was greater than 25 µM.

In series [1], `NS(=O)(=O)c1ccc(CNc2nc(NCC(F)(F)F)c3nc(-c4cc[nH]c(=O)c4)ccc3n2)cc1` [Example 288, 4-{[6-(2-Oxo-1,2-dihydro-pyridin-4-yl)-4-(2,2,2-trifluoro-ethylamino)-pyrido[3,2-d]pyrimidin-2-ylamino]-methyl}-benzenesulfonamide] came in with an EC50 of less than 0.1 µM. For the same compound, the CC50 at 3 days in series [2] was greater than 25 µM.

The compound `NS(=O)(=O)c1ccc(CNc2nc(C3CC3)c3nc(-c4ccc(F)cc4)ccc3n2)cc1` [Example 294, 4-{[4-Cyclopropyl-6-(4-fluoro-phenyl)-pyrido[3,2-d]pyrimidin-2-ylamino]-methyl}-benzenesulfonamide] displayed an EC50 in series [1] of less than 0.1 µM. Further, the CC50 at 3 days in series [2] is less than 5 µM.

Compound `Cc1ccc(Nc2nc(NC(C)C)c3nc(-c4ccc(F)cc4)ccc3n2)nn1` [Example 52, 6-(4-Fluoro-phenyl)-N4-isopropyl-N2-(6-methyl-pyridazin-3-yl)-pyrido[3,2-d]pyrimidine-2,4-diamine] came in with an EC50 in series [1] of 0.25 to 2 µM. In series [2], this compound returned a CC50 at 3 days of 5 to 25 µM.

As for `COCCOc1nc(NCc2ccc(S(N)(=O)=O)cc2)nc2ccc(-c3ccc(F)cc3)nc12` [Example 237, 4-{[6-(4-Fluoro-phenyl)-4-(2-methoxy-ethoxy)-pyrido[3,2-d]pyrimidin-2-ylamino]-methyl}-benzenesulfonamide], the EC50 in series [1] was less than 0.1 µM. The CC50 at 3 days in series [2] was less than 5 µM.

`CCOc1nc(NCc2ccc(S(N)(=O)=O)cc2)nc2ccc(-c3ccc(NC(=O)C(C)(C)N)cc3)nc12` [Example 135, 4-{[4-Ethoxy-6-(4-((2-amino-2-propyl)-carboxamido)-phenyl)-pyrido[3,2-d]pyrimidin-2-ylamino]-methyl}-benzenesulfonamide] gave an EC50 in series [1] of less than 0.1 µM. Also, the CC50 at 3 days in series [2] is less than 5 µM.

In the case of `CCN(CC)c1nc(NCc2ccc(S(N)(=O)=O)cc2)nc2ccc(-c3ccc(F)cc3)nc12` [Example 59, 4-{[4-Diethylamino-6-(4-fluoro-phenyl)-pyrido[3,2-d]pyrimidin-2-ylamino]-methyl}-benzenesulfonamide], in series [1], the EC50 was less than 0.1 µM. Also, the CC50 at 3 days in series [2] fell in the range of 5 to 25 µM.

As for `CCOc1nc(NCc2ccc(CS(=O)(=O)NC(C)C)cc2)nc2ccc(-c3ccc(F)cc3)nc12` [Example 117, C-(4-{[4-Ethoxy-6-(4-fluoro-phenyl)-pyrido[3,2-d]pyrimidin-2-ylamino]-methyl}-phenyl)-N-isopropyl-methanesulfonamide], the 50% effective concentration (EC50) in series [1] is less than 0.1 µM. Further, the 50% cytotoxic concentration (CC50) at 3 days in series [2] was in the range of 5 to 25 µM.

In series [1], `CCOc1nc(NCc2ccc(S(N)(=O)=O)cc2)nc2ccc(-c3ccc(NC(=O)NCCN4CCCC4)cc3)nc12` [Example 124, 4-{[4-Ethoxy-6-(4-(3-(2-(pyrrolidin-1-yl)ethyl)ureido)-phenyl)-pyrido[3,2-d]pyrimidin-2-ylamino]-methyl}-benzenesulfonamide] came in with an EC50 of less than 0.1 µM. Further, the CC50 at 3 days in series [2] was in the range of 5 to 25 µM.

On to `CC(C)Nc1nc(Nc2ccccc2)nc2ccc(-c3ccc(F)cc3)nc12` [Example 50, 6-(4-Fluoro-phenyl)-N4-isopropyl-N2-phenyl-pyrido[3,2-d]pyrimidine-2,4-diamine], for which the EC50 in series [1] lay within 0.25 to 2 µM. This compound also gave a CC50 at 3 days in series [2] greater than 25 µM.

In series [1], `NS(=O)(=O)c1ccc(CNc2nc(NCC(F)(F)F)c3nc(-c4ccc(Cl)c(S(=O)(=O)N[C@@H]5CCNC5)c4)ccc3n2)cc1` [Example 197, 2-Chloro-N-pyrrolidin-3-yl-5-[2-(4-sulfamoyl-benzylamino)-4-(2,2,2-trifluoro-ethylamino)-pyrido[3,2-d]pyrimidin-6-yl]-benzenesulfonamide] showed an EC50 of less than 0.1 µM. In addition, the CC50 at 3 days in series [2] is less than 5 µM.

`Nc1ncc(-c2ccc3nc(NCc4ccc(S(N)(=O)=O)cc4)nc(NC4CC4)c3n2)s1` [Example 183, 4-{[6-(2-Amino-thiazol-5-yl)-4-cyclopropylamino-pyrido[3,2-d]pyrimidin-2-ylamino]-methyl}-benzenesulfonamide] returned an EC50 in series [1] of less than 0.1 µM. Besides, in series [2], the CC50 at 3 days is 5 to 25 µM.

As for `CCOc1nc(NCc2cocn2)nc2ccc(-c3ccc(F)cc3)nc12` [Example 115, [4-Ethoxy-6-(4-fluoro-phenyl)-pyrido[3,2-d]pyrimidin-2-yl]-oxazol-4-ylmethyl-amine], the EC50 in series [1] is less than 0.1 µM. This compound registered a CC50 at 3 days in series [2] of 5 to 25 µM.

`Nc1ncc(-c2ccc3nc(NCc4ccc(S(N)(=O)=O)cc4)nc(NCC(F)(F)F)c3n2)cn1` [Example 174, 4-{[6-(2-Amino-pyrimidin-5-yl)-4-(2,2,2-trifluoro-ethylamino)-pyrido[3,2-d]pyrimidin-2-ylamino]-methyl}-benzenesulfonamide] had an EC50 in series [1] of less than 0.1 µM. In addition, the CC50 at 3 days in series [2] is greater than 25 µM.

With `N#Cc1cccc(-c2ccc3nc(NCc4ccc(S(N)(=O)=O)cc4)nc(NCC(F)(F)F)c3n2)c1` [Example 175, 4-{[6-(3-Cyano-phenyl)-4-(2,2,2-trifluoro-ethylamino)-pyrido[3,2-d]pyrimidin-2-ylamino]-methyl}-benzenesulfonamide], in series [1], the EC50 is less than 0.1 µM. For the same compound, the CC50 at 3 days in series [2] is greater than 25 µM.

`CCOc1nc(NCc2ccc(CS(=O)(=O)NC)cc2)nc2ccc(-c3ccc(F)cc3)nc12` [Example 269, C-(4-{[4-Ethoxy-6-(4-fluoro-phenyl)-pyrido[3,2-d]pyrimidin-2-ylamino]-methyl}-phenyl)-N-methyl-methanesulfonamide] had an EC50 in series [1] of less than 0.1 µM. This compound also gave a CC50 at 3 days in series [2] of 5 to 25 µM.

As for `CN(CCS(C)(=O)=O)c1nc(NCc2ccc(F)cc2)nc2ccc(-c3ccc(NC(=O)C(C)(C)N)cc3)nc12` [Example 280, 2-Amino-N-(4-{2-(4-fluoro-benzylamino)-4-[(2-methanesulfonyl-ethyl)-methyl-amino]-pyrido[3,2-d]pyrimidin-6-yl}-phenyl)-2-methyl-propionamide], the 50% effective concentration (EC50) in series [1] is less than 0.1 µM. Besides, the CC50 at 3 days in series [2] was 5 to 25 µM.

`Cn1cc(-c2ccc3nc(NCc4ccc(S(N)(=O)=O)cc4)nc(NCC(F)(F)F)c3n2)cn1` [Example 166, 4-{[6-(1-Methyl-1H-pyrazol-4-yl)-4-(2,2,2-trifluoro-ethylamino)-pyrido[3,2-d]pyrimidin-2-ylamino]-methyl}-benzenesulfonamide] returned an EC50 in series [1] of less than 0.1 µM. For the same compound, the CC50 at 3 days in series [2] is greater than 25 µM.

In series [1], `CCOc1nc(NCc2nccs2)nc2ccc(-c3ccc(F)cc3)nc12` [Example 114, [4-Ethoxy-6-(4-fluoro-phenyl)-pyrido[3,2-d]pyrimidin-2-yl]-thiazol-2-ylmethyl-amine] came in with a half-maximal effective concentration (EC50) of less than 0.1 µM. Moreover, the CC50 at 3 days in series [2] was in the range of 5 to 25 µM.

Regarding `CS(=O)(=O)CCNc1nc(NCc2ccc(S(N)(=O)=O)cc2)nc2ccc(-c3cnc(N)s3)nc12` [Example 148, 4-{[4-(2-Methanesulfonylethyl)-amino-6-(2-aminothiazole-5-yl)-pyrido[3,2-d]pyrimidin-2-ylamino]-methyl}-benzenesulfonamide], in series [1], the EC50 is less than 0.1 µM. In series [2], this compound came in with a CC50 at 3 days of 5 to 25 µM.

In series [1], `NS(=O)(=O)c1ccc(CNc2nc(Oc3cccc(F)c3)c3nc(-c4ccc(F)cc4)ccc3n2)cc1` [Example 235, 4-{[4-(3-Fluoro-phenoxy)-6-(4-fluoro-phenyl)-pyrido[3,2-d]pyrimidin-2-ylamino]-methyl}-benzenesulfonamide] registered a half-maximal effective concentration (EC50) of less than 0.1 µM. In series [2], this compound gave a CC50 at 3 days of 5 to 25 µM.

Consider `CS(=O)(=O)N(CCO)c1cccc(-c2ccc3nc(NCc4ccc(F)cc4)nc(NCC(F)(F)F)c3n2)c1` [Example 276, N-{3-[2-(4-Fluoro-benzylamino)-4-(2,2,2-trifluoro-ethylamino)-pyrido[3,2-d]pyrimidin-6-yl]-phenyl}-N-(2-hydroxy-ethyl)-methanesulfonamide], for which the EC50 in series [1] is less than 0.1 µM. Further, the CC50 at 3 days in series [2] fell in the range of 5 to 25 µM.
